Assay results as given in patent US9714951B2, “Pharmaceutical compositions containing peptides derived from human BPLP protein” (INSTITUT PASTEUR, priority 2004, dated 2017).
Entries after “also recorded” stand apart in the source; their conditions may differ. Ends that are not written are not given here.

Assays:
[1] = system: formalin-induced pain; settings: iv; cited from earlier work
[2] = system: human cell surface endopeptidases; experiment: metabolism of YQRFSR by human cell membranes containing NEP (RP-HPLC); format: in vitro ADME; settings: 175 μM
Description: FIG. 8 is a RP-HPLC chromatographic analysis of the YQRFSR peptide (SEQ ID NO: 4).
The inventors used the tritiated 3H-YQRFSR peptide (SEQ ID NO: 4) to establish the pharmacokinetic and pharmacodynamic parameters, of this human functional peptidomimetic of rat sialorphin in vivo in adult male rat (biodistribution-bioavailability-clearance) as well as to define its metabolism mechanism and turnover in vivo and in vitro, (FIG. 8).

[3] = target: T1, human NEP (human ecto-endopeptidase activity, LNCaP cell line) (Homo sapiens, UniProt P08473); experiment: breakdown of substrate (substance P, McaBK2) by LNCaP human cell membranes; format: biochemical; settings: for effect on substance P hydrolysis by cell surface ectopeptidases: bestatin 25 μM, captopril 10 μM
T1 construct: in the experimental model of static incubation of human LNCaP cell membranes; endogenous in cells; host or cells: LNCaP (human prostate adenocarcinoma) membrane preparation, NEP induced by DHT

[4] = target: T2, rat NEP ecto-endopeptidase activity (renal tissue) (Rattus norvegicus, UniProt P07861); experiment: breakdown of substance P by rat renal NEP ecto-endopeptidase activity; format: biochemical
T2 construct: rat NEP ecto-endopeptidase activity (renal tissue); from tissue; host or cells: rat kidney (renal tissue)
T2 sequence (P07861 1-750): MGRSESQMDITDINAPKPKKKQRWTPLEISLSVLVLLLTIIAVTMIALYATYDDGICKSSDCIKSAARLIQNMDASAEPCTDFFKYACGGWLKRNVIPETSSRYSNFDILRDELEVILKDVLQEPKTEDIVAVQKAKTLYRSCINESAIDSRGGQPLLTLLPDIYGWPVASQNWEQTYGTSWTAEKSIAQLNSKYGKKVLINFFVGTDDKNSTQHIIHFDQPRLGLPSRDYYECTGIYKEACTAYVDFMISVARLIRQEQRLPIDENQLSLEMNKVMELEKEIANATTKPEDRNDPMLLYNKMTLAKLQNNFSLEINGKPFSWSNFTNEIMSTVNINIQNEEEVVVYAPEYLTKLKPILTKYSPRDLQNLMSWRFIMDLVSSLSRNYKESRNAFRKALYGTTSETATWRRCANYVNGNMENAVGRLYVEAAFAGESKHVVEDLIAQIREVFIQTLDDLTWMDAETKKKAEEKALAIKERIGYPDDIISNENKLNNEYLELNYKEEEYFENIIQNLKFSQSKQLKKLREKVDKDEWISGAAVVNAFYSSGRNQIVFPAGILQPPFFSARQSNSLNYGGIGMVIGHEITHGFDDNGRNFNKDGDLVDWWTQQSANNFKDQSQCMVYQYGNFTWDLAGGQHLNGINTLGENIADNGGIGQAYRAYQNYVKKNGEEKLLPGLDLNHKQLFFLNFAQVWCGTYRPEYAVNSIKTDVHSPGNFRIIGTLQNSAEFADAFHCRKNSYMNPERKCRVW
Method: Briefly, for membrane preparations, the cells were homogenised at 4° C. in 10 volumes (vol./wt.) of 50 mM Tris/HCl buffered at pH 7.1. A first centrifugation at 1000×g and 5° C. for 5 min allows to remove the cellular debris and the nuclei in the pellet. A second centrifugation at 100 000×g and 5° C. for 30 min concentrates the membrane fraction in the pellet, which will be superficially washed three times in cold Tris/HCl buffer, resuspended in fresh buffer, aliquoted and stored at −80° C. while waiting to be used as enzyme source.
Hydrolysis of substrates was measured by monitoring the metabolism rate in conditions of initial velocity measurement in the presence and absence of specific inhibitors. These were added to the preincubation medium. The standard reaction mixture consisted of cell membranes in a final volume of 200 μl Tris-HCl 50 mM pH 6.5-7.2. The substrate was added after preincubation for 10 min and the digestion carried out for 20 min at 25° C. in a constantly shaken water bath. The reaction was terminated by cooling to 4° C. and adding HCl (0.3N final concentration). The reaction tubes were then centrifuged (4700×g for 15 min at 4° C.) and the remaining intact substrate and its metabolites measured.
The intact tritiated substrate was eluted with 75-100% methanol-0.1% TFA (4 ml). • RP-HPLC coupled to a spectrophotometer was used to analyse the hydrolysis of Met-enkephalin, (C-18 LUNA column, AIT). […] Their identities and relative quantities (peak height) were checked by monitoring the column outflow at 264 nm (L3000, Merck). • The disappearance of the initial Met-enkephalin substrate was also quantified by radioimmunoassay (RIA). […] The radioactivity of each fraction was determined by liquid scintillation spectrometry.

[5] = system: formalin-induced pain; experiment: formalin test, behavioral rat model of acute pain; format: in vivo; settings: for time spent in paw licking, early phase: first 20 min after formalin, vehicle 144±17 s
Description: […]. […] […].

[6] = target: T3, soluble purified renal NEP (Oryctolagus cuniculus, UniProt P08049); settings: DGNPA substrate, read-out: IC50 of inhibition of NEP activity; cited from earlier work
T3 construct: host or cells: kidney (purified, soluble)
T3 sequence (P08049 1-750): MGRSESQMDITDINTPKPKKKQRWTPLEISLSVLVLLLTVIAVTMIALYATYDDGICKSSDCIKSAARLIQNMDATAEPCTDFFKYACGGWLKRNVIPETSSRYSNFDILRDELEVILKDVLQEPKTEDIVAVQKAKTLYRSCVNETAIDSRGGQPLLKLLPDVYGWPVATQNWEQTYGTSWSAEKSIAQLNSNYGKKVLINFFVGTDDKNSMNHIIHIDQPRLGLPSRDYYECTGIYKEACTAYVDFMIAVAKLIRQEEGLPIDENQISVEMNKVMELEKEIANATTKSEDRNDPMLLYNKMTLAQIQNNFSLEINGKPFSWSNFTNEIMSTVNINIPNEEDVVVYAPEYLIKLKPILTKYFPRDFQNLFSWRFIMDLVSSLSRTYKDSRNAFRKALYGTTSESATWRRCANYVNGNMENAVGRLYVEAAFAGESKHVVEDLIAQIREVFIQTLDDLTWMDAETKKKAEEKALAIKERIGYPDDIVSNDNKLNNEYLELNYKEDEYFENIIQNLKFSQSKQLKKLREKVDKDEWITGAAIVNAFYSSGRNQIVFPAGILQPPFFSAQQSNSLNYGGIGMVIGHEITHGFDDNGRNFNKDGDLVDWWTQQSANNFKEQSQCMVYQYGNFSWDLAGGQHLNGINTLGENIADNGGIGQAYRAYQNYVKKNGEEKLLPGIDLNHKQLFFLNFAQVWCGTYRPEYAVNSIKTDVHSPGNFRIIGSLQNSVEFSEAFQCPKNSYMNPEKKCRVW

[7] = target: T4, spinal and renal NEP (Rattus norvegicus, UniProt P07861); settings: membrane-bound NEP; read-out: IC50 of inhibition of the breakdown of substance P; cited from earlier work
T4 construct: host or cells: spinal cord and kidney tissue
T4 sequence (P07861 1-750): T2 sequence (P07861 1-750)

[8] = target: T5, soluble recombinant human DPP IV (Homo sapiens, UniProt P27487); experiment: endoproteolysis of substance P by soluble recombinant hDPPIV; format: biochemical; settings: 25 or 50 μM peptide
T5 construct: (without the N-terminal cytosol and transmembrane segment)
T5 sequence (P27487 29-766 limits assumed): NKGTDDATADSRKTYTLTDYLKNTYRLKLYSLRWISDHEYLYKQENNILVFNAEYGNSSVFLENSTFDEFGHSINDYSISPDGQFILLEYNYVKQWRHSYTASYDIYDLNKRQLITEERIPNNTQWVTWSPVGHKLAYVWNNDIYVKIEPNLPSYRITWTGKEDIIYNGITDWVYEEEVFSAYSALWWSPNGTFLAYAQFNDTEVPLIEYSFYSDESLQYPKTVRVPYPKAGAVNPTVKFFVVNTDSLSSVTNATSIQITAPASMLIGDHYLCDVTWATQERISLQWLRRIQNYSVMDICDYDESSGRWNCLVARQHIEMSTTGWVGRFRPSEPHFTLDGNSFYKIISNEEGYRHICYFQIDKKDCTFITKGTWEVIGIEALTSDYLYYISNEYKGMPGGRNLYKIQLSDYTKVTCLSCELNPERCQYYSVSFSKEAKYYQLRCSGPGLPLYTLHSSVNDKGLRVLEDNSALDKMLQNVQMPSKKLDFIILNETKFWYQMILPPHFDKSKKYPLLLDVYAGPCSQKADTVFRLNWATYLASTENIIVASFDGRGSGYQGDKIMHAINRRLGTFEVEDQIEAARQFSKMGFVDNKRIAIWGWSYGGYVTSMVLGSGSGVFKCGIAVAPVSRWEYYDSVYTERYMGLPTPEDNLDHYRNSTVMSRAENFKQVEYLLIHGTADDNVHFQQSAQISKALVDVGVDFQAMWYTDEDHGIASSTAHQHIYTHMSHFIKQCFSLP

T1 sequence (P08473 whole entry): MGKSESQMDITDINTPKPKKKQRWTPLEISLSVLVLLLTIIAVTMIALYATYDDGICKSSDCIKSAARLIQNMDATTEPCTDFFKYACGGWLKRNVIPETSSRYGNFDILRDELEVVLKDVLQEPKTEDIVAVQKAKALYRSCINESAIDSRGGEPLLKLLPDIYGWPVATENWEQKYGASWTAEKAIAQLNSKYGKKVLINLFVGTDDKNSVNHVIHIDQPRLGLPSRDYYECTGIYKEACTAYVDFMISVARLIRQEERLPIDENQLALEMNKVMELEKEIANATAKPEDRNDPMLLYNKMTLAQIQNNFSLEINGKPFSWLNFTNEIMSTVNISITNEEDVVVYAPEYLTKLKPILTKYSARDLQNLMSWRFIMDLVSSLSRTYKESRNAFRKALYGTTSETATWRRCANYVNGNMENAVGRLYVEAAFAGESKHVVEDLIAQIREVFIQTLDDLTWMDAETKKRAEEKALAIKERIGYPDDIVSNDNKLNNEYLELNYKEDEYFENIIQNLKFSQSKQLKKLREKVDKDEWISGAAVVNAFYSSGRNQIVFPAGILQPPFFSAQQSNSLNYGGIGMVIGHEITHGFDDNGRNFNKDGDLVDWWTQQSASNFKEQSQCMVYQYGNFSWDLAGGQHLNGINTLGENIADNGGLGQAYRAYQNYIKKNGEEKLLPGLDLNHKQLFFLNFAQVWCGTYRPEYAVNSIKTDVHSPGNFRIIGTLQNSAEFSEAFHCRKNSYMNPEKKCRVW

Q: With `CSCC[C@H](N)CSSCC(Cc1ccccc1)C(=O)N[C@@H](Cc1ccccc1)C(=O)OCc1ccccc1` (stereo partly shown) [RB101] as the compound, how does the “effective doses in formalin-induced pain model” value [1] read?
A: 2.5 to 5 mg/kg

Q: With `N=C(N)NCCC[C@H](NC(=O)[C@H](CO)NC(=O)[C@H](Cc1ccccc1)NC(=O)[C@H](CCCNC(=N)N)NC(=O)[C@H](CCC(N)=O)NC(=O)[C@@H](N)Cc1ccc(O)cc1)C(=O)O` [YQRFSR] as the compound, how does the “metabolism by human cell membranes containing NEP” value ([2]; in vitro) read?
A: not metabolized

Q: What about the “recovered as intact peptide” value ([2]; with human cell membranes containing NEP, 94% in absence of membranes) of the same compound?
A: 93%

Q: And the “inhibitory potency towards ectoendopeptidase from human cells” value [3]?
A: 5000 to 50000 nM

Q: What about the “inhibition of substance P endoproteolysis by human cell membranes” value ([3]; peptide 175 μM) of the same compound?
A: 70%

Q: What about the IC50 [4] of the same compound?
A: 38000 nM

Q: What about the “inhibitory potency towards ectoendopeptidase from rat tissues” value [4] of the same compound?
A: 5000 to 75000 nM

Q: What about the “time spent in paw licking, early phase” value ([5]; 0.5 mg/kg systemic) of the same compound?
A: 97 ± 14 s

Q: What about the “time spent in paw licking, early phase” value ([5]; 1 mg/kg systemic) of the same compound?
A: 84 ± 13 s

Q: What about the “time spent in paw licking, late phase” value ([5]; 1 mg/kg, 40 to 60 min after formalin, vehicle 63±13 s) of the same compound?
A: 9 ± 3 s

Q: What about the “analgesia in the presence of an opioid receptor antagonist” value ([5]; with nalaxone) of the same compound?
A: totally reversed

Q: Which “effect on substance P hydrolysis by cell surface ectopeptidases” value [3] does the source give for `CC(C)C[C@H](NC(=O)[C@@H](O)[C@H](N)Cc1ccccc1)C(=O)O` [bestatin] here?
A: did not inhibit

Q: For `C[C@H](CS)C(=O)N1CCC[C@H]1C(=O)O` [captopril], which “effect on substance P hydrolysis by cell surface ectopeptidases” value [3] is on record?
A: did not inhibit

Q: With `O=C(O)CNC(=O)C(CS)Cc1ccccc1` (stereo not shown) [thiorphan] as the compound, how does the inhibition at 0.5 µM ([3]; read-out: maximum inhibitory potency on LNCaP membrane activity) read?
A: 62%

Q: With QHNP (listed as Rattus rattus) as the compound, how does the “inhibitory potency towards ectoendopeptidase from rat tissues” value [4] read?
A: ≧50 μM

Q: For QHNPR, which IC50 [6] is on record?
A: 600 nM

Q: What about the “inhibitory potency against membrane-anchored human NEP (LNCaP) relative to rodent NEP (rat, rabbit), fold lower” value ([3]; human LNCaP vs rodent NEP) of the same compound?
A: about 10 fold

Q: What about the “inhibitory potency towards ectoendopeptidase from human cells” value [3] of the same compound?
A: 4000 to 40000 nM

Q: What about the “inhibitory potency towards ectoendopeptidase from rat tissues” value [4] of the same compound?
A: 400 to 4000 nM

Q: What about the “effective doses in formalin-induced pain model” value [1] of the same compound?
A: 0.1 to 0.2 mg/kg

Q: What about the IC50 [7] of the same compound?
A: 400 to 1000 nM

Q: With QRFSR [QRFSR] as the compound, how does the “effect on breakdown of SP by recombinant hDPPIV” value [8] read?
A: no effect; also recorded: not prevented

Q: With QRGPR (listed as Homo sapiens) as the compound, how does the “effect on substance P endoproteolysis induced by LNCaP human cell membranes” value ([3]; 20-90 μM) read?
A: no effect

Q: And the “inhibitory potency towards ectoendopeptidase from human cells” value [3]?
A: ≧90 μM

Q: For QRGPRGP (listed as Homo sapiens), which “inhibitory potency towards ectoendopeptidase from human cells” value [3] is on record?
A: ≧90 μM
